Experimental data: publication PMC8272121, “Synthesis and Evaluation of Chalcone-Quinoline Based Molecular Hybrids as Potential Anti-Malarial Agents” (Molecules, 2021)
Values after ≈ are worked out from the molar mass of the structure shown. Where two headings read alike, the source gives them in different places.

Key:
[1] = system: P. falciparum NF54 (drug-sensitive strain); experiment: In vitro antiplasmodial assay (parasite lactate dehydrogenase), chloroquine-sensitive NF54 strain; assay type: cell-based, Plasmodium falciparum; settings: sensitive (NF54) strain of P. falciparum, pLDH assay, 48 h, mean of ≥2 independent experiments, read-out: PfNF54 IC50
Protocol: All the synthesized molecular hybrids (6–27) were evaluated for in vitro antiplasmodial activity against the drug-sensitive strain (NF54) of P. falciparum and for cytotoxicity against the Chinese Hamster Ovary (CHO) mammalian cell line using emetine as a reference drug. Aqueous solubility was determined at pH 6.5 (Table 2).
In-vitro anti-plasmodium assay. Compounds were tested using parasite lactate dehydrogenase assay as a marker for parasite survival. The respective stock solutions of CQ diphosphate and test compounds were prepared by dissolving 2 mg/mL in distilled water (for CQ) and 100% DMSO for test compounds. The solutions were then stored at −20 °C, with further dilutions prepared on the day of the experiment. The cultures were synchronized in the ring stage as described previously using 15 mL of 5% (w/v) d-sorbitol in water. Synchronous cultures of PfNF54 (CQS) in the late trophozoite stage were prepared to 2% parasitemia and 2% hematocrit. […] Following incubation, 100 μL of MalStat reagent and 15 μL of resuspended culture were combined, followed by addition of 25 μL of nitro blue tetrazolium chloride (NBT). The plates were kept in the dark for about 10 min to fully develop, and absorbance was measured at 620 nm on a microplate reader. Raw data were exported to Microsoft Excel for dose-response analysis.

[2] = Aqueous solubility, miniaturized shake flask method (HPLC-DAD); assay type: physicochemical; settings: aqueous solution, aqueous buffer, thermodynamic from solid, pH 6.5, shake flask 20 h, 25 °C
Protocol: All the synthesized molecular hybrids (6-27) were evaluated for in vitro antiplasmodial activity against the drug-sensitive strain (NF54) of P. falciparum and for cytotoxicity against the Chinese Hamster Ovary (CHO) mammalian cell line using emetine as a reference drug. Aqueous solubility was determined at pH 6.5 (Table 2). Aqueous solubility. Water solubility was analyzed using a miniaturized shake flask method. Ten millimolar stock solutions of each of the compounds were used to prepare calibration standards (10-220 μM) in DMSO. The same 10 mM stock solutions were accurately dispensed in duplicate into 96-well plates, and the DMSO, dried down ([…],90 min, 37 °C). Thereafter, the samples were reconstituted (200 μM) in an aqueous solution and shaken (20 h, 25 °C). The solutions were analyzed by means of HPLC-DAD (Agilent1200 Rapid Resolution HPLC with a diode array detector). Best fit calibration curves were constructed using the calibration standards, which were used to determine the aqueous samples' solubility.

[3] = system: Chinese Hamster Ovary (CHO) mammalian cell line; experiment: Cytotoxicity MTT assay on CHO cells; assay type: cell-based; settings: for IC50: Cricetulus griseus, CHO, Chinese hamster ovarian cell line, MTT, 48 h; for SI (selectivity index): SI = IC50 (CHO)/IC50 (PfNF54)
Protocol: All the synthesized molecular hybrids (6–27) were evaluated for in vitro antiplasmodial activity against the drug-sensitive strain (NF54) of P. falciparum and for cytotoxicity against the Chinese Hamster Ovary (CHO) mammalian cell line using emetine as a reference drug. Aqueous solubility was determined at pH 6.5 (Table 2). Cytotoxicity assay. […] The reference standard, emetine, was prepared to 2 mg/mL in distilled water while stock solutions of test compounds were prepared to 20 mg/mL in 100% DMSO with the highest concentration of solvent to which the cells were exposed having no measurable effect on the cell viability. The initial concentration of the compounds and control was 100 μg/mL, which was serially diluted in complete medium with 10-fold dilutions to give six concentrations, the lowest being 0.001 μg/mL. Plates were incubated for 48 h with 100 μL of drug and 100 μL of cell suspension in each well and developed afterward by adding 25 μL of sterile MTT (Thermo Fisher Scientific) to each well, followed by 4 h of incubation in the dark. The plates were then centrifuged; the medium was aspirated, and 100 μL of DMSO was added to dissolve crystals before reading the absorbance at 540 nm. Data were analyzed, and the sigmoidal dose-response was derived using GraphPad Prism v 4.0 software (La Jolla). All experiments were performed for at least three independent biological repeats, each with technical triplicates.

Row | Compound | IC50 ([1]; Plasmodium falciparum) [nM] | melting point [°C] | solubility at 20 h [2] [µM] | IC50 [3] [µM] | SI (selectivity index) [3] | IC50 [1] [nM]
1 | CC(=O)c1ccc(S(=O)(=O)NCCNc2ccnc3cc(Cl)ccc23)cc1 [Compound 4, 4-acetyl-N-(2-((7-chloroquinolin-4-yl)amino)ethyl)benzenesulfonamide] | 450 | 200 to 204 | 200 (≈ 80.8 µg/mL) | 26.3 | 58.4 | –
2 | CC(=O)c1ccc(S(=O)(=O)NCCCNc2ccnc3cc(Cl)ccc23)cc1 [Compound 5, 4-acetyl-N-(3-((7-chloroquinolin-4-yl)amino)propyl)benzenesulfonamide] | 480 | 181 to 183 | < 5 | > 50 | >104 | –
3 | O=C(C=Cc1ccccc1)c1ccc(S(=O)(=O)NCCCNc2ccnc3cc(Cl)ccc23)cc1 [Compound 6, N-(3-((7-chloroquinolin-4-yl)amino)propyl)-4-cinnamoylbenzenesulfonamide] | 1670 | 210 to 212 | – | > 50 | >29 | –
4 | O=C(/C=C/c1ccc(F)c(F)c1)c1ccc(S(=O)(=O)NCCCNc2ccnc3cc(Cl)ccc23)cc1 [Compound 13, (E)-N-(3-((7-chloroquinolin-4-yl)amino)propyl)-4-(3-(3,4-difluorophenyl)acryloyl)benzenesulfonamide] | 2580 | 212 to 214 | < 5 | > 300 | >116 | –
5 | COc1ccc(/C=C/C(=O)c2ccc(S(=O)(=O)NCCCNc3ccnc4cc(Cl)ccc34)cc2)cc1OC [Compound 14, (E)-N-(3-((7-chloroquinolin-4-yl)amino)propyl)-4-(3-(3,4-dimethoxyphenyl)acryloyl)benzenesulfonamide] | 320 | 222 to 224 | – | 43.4 | 135.6 | –
6 | O=C(/C=C/c1ccccc1F)c1ccc(S(=O)(=O)NCCCNc2ccnc3cc(Cl)ccc23)cc1 [Compound 15, (E)-N-(3-((7-chloroquinolin-4-yl)amino)propyl)-4-(3-(2-fluorophenyl)acryloyl)benzenesulfonamide] | 860 | 223 to 225 | 5 (≈ 2.62 µg/mL) | 45.5 | 52.9 | –
7 | COc1ccc(/C=C/C(=O)c2ccc(S(=O)(=O)NCCNc3ccnc4cc(Cl)ccc34)cc2)cc1 [Compound 17, (E)-N-(2-((7-chloroquinolin-4-yl)amino)ethyl)-4-(3-(4-methoxyphenyl)acryloyl)benzenesulfonamide] | 490 | 222 to 225 | 185 (≈ 96.6 µg/mL) | 17.5 | 35.7 | –
8 | O=C(/C=C/c1ccc(F)cc1F)c1ccc(S(=O)(=O)NCCCNc2ccnc3cc(Cl)ccc23)cc1 [Compound 18, (E)-N-(3-((7-chloroquinolin-4-yl)amino)propyl)-4-(3-(2,4-difluorophenyl)acryloyl)benzenesulfonamide] | 500 | 216 to 218 | 130 (≈ 70.5 µg/mL) | 22.4 | 45.2 | –
9 | O=C(/C=C/c1cc(F)ccc1F)c1ccc(S(=O)(=O)NCCCNc2ccnc3cc(Cl)ccc23)cc1 [Compound 20, (E)-N-(3-((7-chloroquinolin-4-yl)amino)propyl)-4-(3-(2,5-difluorophenyl)acryloyl)benzenesulfonamide] | 790 | 219 to 221 | – | 43.7 | 55.3 | –
10 | O=C(/C=C/c1ccco1)c1ccc(S(=O)(=O)NCCCNc2ccnc3cc(Cl)ccc23)cc1 [Compound 21, (E)-N-(3-((7-chloroquinolin-4-yl)amino)propyl)-4-(3-(furan-2-yl)acryloyl)benzenesulfonamide] | 4450 | 222 to 224 | 200 (≈ 99.2 µg/mL) | > 50 | >11 | –
11 | CC[C@H]1CN2CCc3cc(OC)c(OC)cc3[C@@H]2C[C@@H]1C[C@H]1NCCc2cc(OC)c(OC)cc21 [Emetine, emetine, reference compound] | – | – | – | 0.0034 | – | –
12 | (E)-N-(2-((7-chloroquinolin-4-yl)amino)ethyl)-4-(3-ferrocenyl)acryloyl)benzenesulfonamide [Compound 23] | – | – | – | – | – | 1530

Continued by falling IC50 ([1]; Plasmodium falciparum), values first:

Row | IC50 ([1]; Plasmodium falciparum) [nM] | melting point [°C] | solubility at 20 h [2] [µM] | Compound | IC50 [3] [µM] | SI (selectivity index) [3] | IC50 [1] [nM]
13 | 580 | 197 to 200 | 15 (≈ 8.94 µg/mL) | COc1cc(/C=C/C(=O)c2ccc(S(=O)(=O)NCCCNc3ccnc4cc(Cl)ccc34)cc2)cc(OC)c1OC [Compound 16, (E)-N-(3-((7-chloroquinolin-4-yl)amino)propyl)-4-(3-(3,4,5-trimethoxyphenyl)acryloyl)benzenesulfonamide] | 22.6 | 39.0 | –
14 | 540 | 223 to 225 | < 5 | O=C(/C=C/c1c(F)cccc1F)c1ccc(S(=O)(=O)NCCCNc2ccnc3cc(Cl)ccc23)cc1 [Compound 10, (E)-N-(3-((7-chloroquinolin-4-yl)amino)propyl)-4-(3-(2,6-difluorophenyl)acryloyl)benzenesulfonamide] | 27.6 | 51.1 | –
15 | 510 | 223 to 225 | – | O=C(/C=C/c1ccc(OC(F)(F)F)cc1)c1ccc(S(=O)(=O)NCCCNc2ccnc3cc(Cl)ccc23)cc1 [Compound 27, (E)-N-(3-((7-chloroquinolin-4-yl)amino)propyl)-4-(3-(4-(trifluoromethoxy)phenyl)acryloyl)benzenesulfonamide] | 44 | 86.3 | –
16 | 390 | 184 to 187 | 190 (≈ 96.1 µg/mL) | Cc1ccc(/C=C/C(=O)c2ccc(S(=O)(=O)NCCNc3ccnc4cc(Cl)ccc34)cc2)cc1 [Compound 22, (E)-N-(2-((7-chloroquinolin-4-yl)amino)ethyl)-4-(3-(p-tolyl)acryloyl)benzenesulfonamide] | 24.9 | 63.8 | –
17 | 370 | 209 to 213 | 130 (≈ 67.6 µg/mL) | Cc1ccc(/C=C/C(=O)c2ccc(S(=O)(=O)NCCCNc3ccnc4cc(Cl)ccc34)cc2)cc1 [Compound 7, (E)-N-(3-((7-chloroquinolin-4-yl)amino)propyl)-4-(3-(p-tolyl)acryloyl)benzenesulfonamide] | 25.1 | 67.8 | –
18 | 330 | 223 to 225 | – | COc1ccc(/C=C/C(=O)c2ccc(S(=O)(=O)NCCNc3ccnc4cc(Cl)ccc34)cc2)cc1OC [Compound 19, (E)-N-(2-((7-chloroquinolin-4-yl)amino)ethyl)-4-(3-(3,4-dimethoxyphenyl)acryloyl)benzenesulfonamide] | 45.1 | 136.7 | –
19 | 280 | 216 to 218 | < 5 | O=C(/C=C/c1ccc(F)cc1)c1ccc(S(=O)(=O)NCCCNc2ccnc3cc(Cl)ccc23)cc1 [Compound 9, (E)-N-(3-((7-chloroquinolin-4-yl)amino)propyl)-4-(3-(4-fluorophenyl)acryloyl)benzenesulfonamide] | 14.7 | 52.5 | –
